Legend:
Format in all cases: cell-based
Settings in all cases: COS-7 cells
human KDELR1 D50N = molecular target: T1, human KDELR1 D50N (Homo sapiens, UniProt P24390, D50N); experiment: ER retrieval assay, KDELR1 D50N-GFP
T1 construct: expressed in transfected cells; host or cells: COS-7
Excerpt: (§1) To create KDELR1-GFP and KDELR2-GFP, the reading frames for Homo sapiens KDELR1 (Uniprot: P24390) and KDELR2 (Uniprot: P33947) were cloned into the pEF5/FRT low level mammalian expression vector with a C-terminal 20 amino acid linker made up of 5 copies of Gly-Ser-Ser-Ser followed by GFP. Specific point mutations were introduced using the Quickchange protocol (Stratagene) and are described in the key resources table and figures. To create the mScarlet-KDEL^sec ligand construct, mScarlet with an N-terminal hGH signal peptide and the 16 C-terminal residues of human BiP at its C-terminus, containing the KDEL signal, was cloned into the pcDNA3.1 vector. […] The Golgi marker protein TGN46 was detected by antibody (sheep anti-TGN46 AHP500G; AbD Serotec) and an Alexa 647 conjugated secondary anti-sheep secondary (A-21448, Invitrogen). In Figure 1d and e, endogenous KDELR was detected by antibody (mouse anti-KDELR ADI-VAA-PT048; Enzo Life Sciences) and Alexa 488 conjugated anti-mouse secondary antibody (A-21202, Invitrogen). For retrieval assays in other figures, KDELR-GFP fusion proteins were directly detected by fluorescence. The mScarlet-xDEL fusion proteins were directly detected by fluorescence. […] The fraction of KDEL receptor in the Golgi apparatus was calculated by dividing the Golgi signal by the total cell signal. […]

human KDELR1 E117A = molecular target: T2, human KDELR1 E117A (Homo sapiens, UniProt P24390, E117A); experiment: ER retrieval assay, KDELR1 E117A-GFP
T2 construct: expressed in transfected cells; host or cells: COS-7
Excerpt: as §1

human KDELR1 E117Q = molecular target: T3, human KDELR1 E117Q (Homo sapiens, UniProt P24390, E117Q); experiment: ER retrieval assay, KDELR1 E117Q-GFP
T3 construct: expressed in transfected cells; host or cells: COS-7
Excerpt: as §1

human KDELR1 E117N = molecular target: T4, human KDELR1 E117N (Homo sapiens, UniProt P24390, E117N); experiment: ER retrieval assay, KDELR1 E117N-GFP
T4 construct: expressed in transfected cells; host or cells: COS-7
Excerpt: as §1

human KDELR1 D50N/N54K = molecular target: T5, human KDELR1 D50N/N54K (Homo sapiens, UniProt P24390, D50N/N54K); experiment: ER retrieval assay, KDELR1 D50N/N54K-GFP
T5 construct: expressed in transfected cells; host or cells: COS-7
Excerpt: as §1

[1] = molecular target: T6, human KDELR1 D50N/N54K/E117Q/W120A (Homo sapiens, UniProt P24390, D50N/E117Q/N54K/W120A); experiment: ER retrieval assay, KDELR1 D50N/N54K/E117Q/W120A-GFP
T6 construct: expressed in transfected cells; host or cells: COS-7
Excerpt: as §1

human KDELR1 D50N/N54R = molecular target: T7, human KDELR1 D50N/N54R (Homo sapiens, UniProt P24390, D50N/N54R); experiment: ER retrieval assay, KDELR1 D50N/N54R-GFP
T7 construct: expressed in transfected cells; host or cells: COS-7
Excerpt: as §1

human KDELR1 N54K/E117Q = molecular target: T8, human KDELR1 N54K/E117Q (Homo sapiens, UniProt P24390, E117Q/N54K); experiment: ER retrieval assay, KDELR1 N54K/E117Q-GFP
T8 construct: expressed in transfected cells; host or cells: COS-7
Excerpt: as §1

human KDELR1 D50N/E117Q = molecular target: T9, human KDELR1 D50N/E117Q (Homo sapiens, UniProt P24390, D50N/E117Q); experiment: ER retrieval assay, KDELR1 D50N/E117Q-GFP
T9 construct: expressed in transfected cells; host or cells: COS-7
Excerpt: as §1

T5 sequence (P24390 whole entry D50N/N54K): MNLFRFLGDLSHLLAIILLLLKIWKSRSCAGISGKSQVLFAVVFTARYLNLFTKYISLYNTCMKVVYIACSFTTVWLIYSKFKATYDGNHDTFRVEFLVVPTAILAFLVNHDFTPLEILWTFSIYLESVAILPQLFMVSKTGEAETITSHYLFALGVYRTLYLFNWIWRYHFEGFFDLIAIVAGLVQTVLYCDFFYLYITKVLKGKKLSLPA
T7 sequence (P24390 whole entry D50N/N54R): as the sequence (P24390 whole entry D50N/N54K) above, with K54R counted along it
T3 sequence (P24390 whole entry E117Q): as the sequence (P24390 whole entry D50N/N54K) above, with N50D, K54N, E117Q counted along it
T4 sequence (P24390 whole entry E117N): as the sequence (P24390 whole entry D50N/N54K) above, with N50D, K54N, E117N counted along it
T1 sequence (P24390 whole entry D50N): as the sequence (P24390 whole entry D50N/N54K) above, with K54N counted along it
T2 sequence (P24390 whole entry E117A): as the sequence (P24390 whole entry D50N/N54K) above, with N50D, K54N, E117A counted along it
T9 sequence (P24390 whole entry D50N/E117Q): as the sequence (P24390 whole entry D50N/N54K) above, with K54N, E117Q counted along it
T6 sequence (P24390 whole entry D50N/N54K/E117Q/W120A): as the sequence (P24390 whole entry D50N/N54K) above, with E117Q, W120A counted along it
T8 sequence (P24390 whole entry N54K/E117Q): as the sequence (P24390 whole entry D50N/N54K) above, with N50D, E117Q counted along it

## ADEL [pcDNA3.1 hGHss-mScarlet-H. sapiens BiP639-654K651A (ADEL^SEC), secreted mScarlet fusion with human BiP C-terminus, ADEL signal]
Human KDELR1 D50N
  ligand-induced receptor retrieval to the ER (in words): abolished the response to all signal variants
Human KDELR1 E117A
  ligand-induced receptor retrieval to the ER (in words): relocated to the ER
Human KDELR1 E117Q
  ligand-induced receptor retrieval to the ER (in words): move to the ER
Human KDELR1 E117N
  ligand-induced receptor retrieval to the ER (in words): move to the ER
Human KDELR1 D50N/N54K
  ligand-induced receptor retrieval to the ER (in words): gave a response
[1]
  ligand-induced receptor retrieval to the ER (in words): does not relocate from the Golgi to the ER
Human KDELR1 D50N/N54R
  ligand-induced receptor retrieval to the ER (in words): gave a response
Human KDELR1 N54K/E117Q
  ligand-induced receptor retrieval to the ER (in words): switched specificity towards ADEL and DDEL
Human KDELR1 D50N/E117Q
  ligand-induced receptor retrieval to the ER (in words): switched specificity towards ADEL and DDEL

Source: article PMC8248988, “A signal capture and proofreading mechanism for the KDEL-receptor explains selectivity and dynamic range in ER retrieval” (eLife, 2021)
